# pEC50, pIC50: −log10 of the molar value.
# Experiments:
# [1] = target: Keap1 (Homo sapiens, UniProt Q14145); test: WB of Keap1 in OCI-AML2 cells (soluble/insoluble phase); format: cell-based; parameters: endogenous in cells; host or cells: OCI-AML2
# Experimental: Cells were incubated with DMSO at 0.1% or with compound in concentrations ranging 10–20,000 nM for 20 h unless indicated differently. Following incubation, lysis was performed in RIPA buffer and the samples were measured for total protein quantification by BCA assay (Thermo Fisher Scientific, 23225). Then, 20–40 μg of each sample was loaded and run on an SDS–PAGE gel, before transferring onto a nitrocellulose membrane using a Trans-Blot Turbo system (Bio-Rad) and blocking using a 5% BSA in TBS-T (w/v) solution for 1 h at room temperature. Incubation with primary antibodies (mouse anti-BCL-6 (sc-7388, Santa Cruz, 1:500; overnight at 4 °C), mouse anti-Keap1 (sc-365626, Santa Cruz, 1:500; overnight at 4 °C), rabbit anti-LDHA (4H18L6, Thermo Fisher, 1:1,000; overnight at 4 °C), mouse anti-NQO2 (sc-271665, Santa Cruz, 1:500; overnight at 4 °C), rabbit anti-c-Myc (5605, Cell Signaling, 1:1,000; overnight at 4 °C) and mouse anti-β-actin (3700, Cell Signaling, 1:1,000; 1 h at room temperature) was performed and then the membranes were washed and incubated with a horseradish-peroxidase-conjugated secondary antibody (mouse 7076/rabbit 7074, Cell Signaling) at room temperature for 1 h. Imaging of the chemiluminescence signal was performed using a ChemiDoc XRS+ instrument (Bio-Rad). Primary band quantifications were normalized against β-actin bands.
# [2] = system: NQO1 expression; test: qPCR for NQO1 expression in OCI-AML2 cells after washout; format: cell-based; settings: OCI-AML2, 250 nM 20 h, from 48 h after treatment
# Experimental: Cells were treated with either DMSO or compound at 250 nM, followed by washing out the treated medium after 20 h and reseeding in fresh medium. Cells were then collected at several time points post washout. Total RNA was extracted using RNeasy mini kit (Qiagen, 74104). […] PCR amplification was carried out in Step-One Plus thermocycler (Applied Biosystems). Relative quantification was performed using standard curves. GAPDH was used for normalization.
# [3] = system: Nrf2; test: WB of Nrf2; format: cell-based; settings: U2OS cells, 20 h compound treatment
# [4] = system: Ramos cells; test: Viability measurements, Ramos cells; format: cell-based; settings: Ramos, 72 h
# Experimental: (§1) Cells were seeded in a transparent-bottom, black 96-well plate, at 15,000 cells per well in sixfold replications. in 90 µl of medium and left to adhere for at least 4 h. The cells were then treated with the respective compound by adding 10 µl of medium–-compound mixture for a final volume of 100 µl in each well. Cell-Titer blue reagent was used to measure viability according to the manufacturer’s instructions. Plate reader measurements were performed on a Tecan Spark Control 10 M fluorescence system.
# [5] = system: HEK 293 cells; test: Viability measurements, HEK 293 cells; format: cell-based; settings: HEK 293, 72 h
# Experimental: as §1
# [6] = target: T1, recombinant Keap1 BTB (Homo sapiens, UniProt Q14145, S172A); test: DLS of recombinant Keap1 BTB domain; format: biochemical; settings: 50 μM Keap1 BTB, 50 μM compound, room temperature, over time
# T1 construct: The Keap1 BTB domain (48–180) encoding the single substitution S172A was cloned into pET28-bdSumo vector; His–bdSumo (N, cleaved yes); made in house; host or cells: E. coli BL21(DE3)
# T1 sequence (Q14145 48-180 S172A): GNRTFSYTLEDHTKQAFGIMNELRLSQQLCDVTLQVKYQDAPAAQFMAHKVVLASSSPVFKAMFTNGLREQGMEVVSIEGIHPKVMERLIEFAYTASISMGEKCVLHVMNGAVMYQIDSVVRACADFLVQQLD
# Experimental: (§2) DLS samples were prepared in the respective protein’s elution buffer, to which 0.01% Tween was added, along with the compound from a DMSO stock to obtain a final DMSO concentration of 2%. Samples were prepared at room temperature and measured at a constant temperature of 25 °C. All samples were passed through 0.1-μm filters and then placed in a clear-bottom black 384-well plate. DLS data were recorded using a DynaproPlate Reader III (Wyatt Technology). Data were processed with the supplied DYNAMICS software.
# [7] = system: recombinant Keap1 BTB; test: DLS of recombinant Keap1 BTB domain; format: biochemical; settings: 50 µM protein, 50 µM compound
# Experimental: as §2
# [8] = system: Mino cells; test: Viability measurements, Mino cells; format: cell-based; settings: Mino, 72 h
# Experimental: as §1
# [9] = system: OCI-AML2 cells; test: Viability measurements, OCI-AML2 cells; format: cell-based
# Experimental: as §1
# [10] = target: T1, recombinant Keap1 BTB; test: In vitro crosslinking of Keap1 BTB using GA; format: biochemical; settings: 50 µM Keap1, 50 µM compound
# Experimental: Recombinant Keap1 samples were incubated at room temperature in desired conditions in a buffer containing 25 mM HEPES, 150 mM NaCl pH 8, 1 mM TCEP and 0.01% Tween. At the selected time point, each sample was treated with a 7.5% aqueous solution of GA (prepared fresh) for a final GA concentration of 0.125% and mixed gently. The crosslinking reaction was left at room temperature for 40 min, followed by addition of NuPage gel sample buffer with 20 mM DTT and boiling at 95 °C for 5 min. Lastly, 2–3 μg of each sample was loaded and run on an SDS–PAGE gel. Bands were visualized using a Coomassie blue solution.
# Keap1, sequence (Q14145 whole entry): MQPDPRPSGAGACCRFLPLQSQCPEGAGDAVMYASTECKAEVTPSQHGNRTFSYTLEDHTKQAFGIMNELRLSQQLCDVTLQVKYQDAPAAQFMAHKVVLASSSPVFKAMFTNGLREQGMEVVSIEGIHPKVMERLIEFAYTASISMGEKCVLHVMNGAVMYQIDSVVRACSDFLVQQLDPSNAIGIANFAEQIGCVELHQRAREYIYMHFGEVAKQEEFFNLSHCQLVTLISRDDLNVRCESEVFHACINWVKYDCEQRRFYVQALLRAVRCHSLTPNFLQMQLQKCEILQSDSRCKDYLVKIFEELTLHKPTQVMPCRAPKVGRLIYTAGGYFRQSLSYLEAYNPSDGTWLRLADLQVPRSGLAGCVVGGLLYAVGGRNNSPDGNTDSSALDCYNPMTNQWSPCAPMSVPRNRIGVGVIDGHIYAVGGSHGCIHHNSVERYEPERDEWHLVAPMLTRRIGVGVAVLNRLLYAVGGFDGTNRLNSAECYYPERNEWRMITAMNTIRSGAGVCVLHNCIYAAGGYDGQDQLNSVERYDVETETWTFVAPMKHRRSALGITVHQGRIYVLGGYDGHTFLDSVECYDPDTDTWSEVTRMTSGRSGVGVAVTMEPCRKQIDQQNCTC
smiles,measurement,setting,value
CC1(C)CCC2(C(=O)NCCOCCOCCNC(=O)C34CCC(C)(C)CC3C3C(=O)C=C5C6(C)C=C(C#N)C(=O)C(C)(C)C6CCC5(C)C3(C)CC4)CCC3(C)C(C(=O)C=C4C5(C)C=C(C#N)C(=O)C(C)(C)C5CCC43C)C2C1 (centres unmarked) [EL133],Keap1 in insoluble phase after washout (WB),"[1]; OCI-AML2, 500 nM EL133 or 2.5 µM EL256 for 20 h, then washout",remained accumulated in the insoluble phase for up to the 96 h
same,rescue of Keap1 downregulation by MLN-4924 or bortezomib pretreatment,"[1]; OCI-AML2, 1 h pretreatment, then compound 7 h",did not rescue Keap1 downregulation
same,concentration at which Keap1 accumulates in the insoluble phase (as low as),[1]; OCI-AML2 cells,500 nM
same,pEC50,"[1]; OCI-AML2 cells, 20 h treatment, read-out: EC50 (Keap1 downregulation, WB)",6.99
same,duration of NQO1 upregulation after washout,[2],remained higher
same,Nrf2 levels (WB),[3],Nrf2 upregulation
same,additional viability loss compared with BDX,[4],no additional viability loss
same,additional viability loss compared with BDX,[5],no additional viability loss
same,formation of large species (DLS),[6],large molecular species forming
same,formation of large species with WT versus C151S Keap1 BTB (DLS),[7],able to form large species in solution with the wild-type (WT) protein but not with the mutant
same,additional viability loss compared with BDX,[8],no additional viability loss
same,pIC50,"[9]; Homo sapiens, OCI-AML2, 72 h",6.58
same,difference in viability IC50 over BDX,[9]; OCI-AML2,fourfold
same,higher-order assemblies after GA crosslinking (SDS–PAGE),[10],induced the formation of higher-order assemblies

# From paper PMC13503280, “A pharmacological modality to sequester homomeric proteins” (Nature Chemical Biology, 2026)
